Where “and” joins values, the source holds several entries; their conditions need not be identical. Identical values can stand only once. Inconclusive results and toxic doses are left out.
Tested on: L1210 leukemia ip in BDF1 mice, survival T/C
Test: NCI In Vivo Anticancer Drug Screen. Data for tumor model L1210 Leukemia (intraperitoneal) in B6D2F1 (BDF1) mice
Details: endpoint: mean survival time, higher = longer survival
In short: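 Each compound was tested against a transplantable tumor grown in mice. The endpoint was survival, with treated animals benchmarked against vehicle controls as a simple ratio.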

[1] = dose: 100.0 mg/kg/injection, schedule: Q04DX003 (ip), vehicle: saline with Tween-80
[2] = dose: 200.0 mg/kg/injection, schedule: Q04DX003 (ip), vehicle: saline with Tween-80
[3] = dose: 100.0 mg/kg/injection, schedule: Q04DX003 (ip), vehicle: saline
[4] = dose: 200.0 mg/kg/injection, schedule: Q04DX003 (ip), vehicle: saline
[5] = dose: 100.0 mg/kg/injection, schedule: Q01DX009 (ip), vehicle: Klucel (hydroxypropylcellulose) (HPC)
[6] = dose: 200.0 mg/kg/injection, schedule: Q01DX009 (ip), vehicle: Klucel (hydroxypropylcellulose) (HPC)
[7] = dose: 400.0 mg/kg/injection, schedule: Q01DX009 (ip), vehicle: Klucel (hydroxypropylcellulose) (HPC)
[8] = dose: 100.0 mg/kg/injection, schedule: Q01DX001 (ip), vehicle: saline sonified
[9] = dose: 200.0 mg/kg/injection, schedule: Q01DX001 (ip), vehicle: saline sonified
[10] = dose: 100.0 mg/kg/injection, schedule: Q01DX001 (ip), vehicle: carboxymethylcellulose (CMC)
[11] = dose: 200.0 mg/kg/injection, schedule: Q01DX001 (ip), vehicle: carboxymethylcellulose (CMC)
[12] = dose: 400.0 mg/kg/injection, schedule: Q01DX001 (ip), vehicle: carboxymethylcellulose (CMC)
[13] = dose: 100.0 mg/kg/injection, schedule: Q01DX001 (ip), vehicle: saline
[14] = dose: 100.0 mg/kg/injection, schedule: Q04DX002 (ip), vehicle: saline with Tween-80
[15] = dose: 200.0 mg/kg/injection, schedule: Q04DX002 (ip), vehicle: saline with Tween-80
[16] = dose: 400.0 mg/kg/injection, schedule: Q04DX002 (ip), vehicle: saline with Tween-80

Compound: CS(=O)(=O)N(CC(=O)O)Cc1ccc(Cl)c(Cl)c1
- T/C (dose: 100.0 mg/kg/injection, schedule: Q01DX009 (ip), vehicle: other): 100 % of control
- T/C (dose: 100.0 mg/kg/injection, schedule: Q04DX003 (ip), vehicle: other): 97 % of control
- T/C (dose: 200.0 mg/kg/injection, schedule: Q01DX009 (ip), vehicle: other): 104 % of control
- T/C (dose: 200.0 mg/kg/injection, schedule: Q04DX003 (ip), vehicle: other): 97 % of control
- T/C (dose: 400.0 mg/kg/injection, schedule: Q01DX009 (ip), vehicle: other): 96 % of control
- T/C (dose: 400.0 mg/kg/injection, schedule: Q04DX003 (ip), vehicle: other): 95 % of control

Compound: COC(=O)C(CCC(=O)CCl)N1C(=O)c2ccccc2C1=O (stereo unspecified)
- T/C [1]: 89 % of control
- T/C [2]: 89 % of control

Compound: CC(=O)OCc1ccccn1
- T/C (dose: 100.0 mg/kg/injection, schedule: Q01DX009 (ip), vehicle: saline): 97 % of control
- T/C [3]: 94 % of control
- T/C (dose: 200.0 mg/kg/injection, schedule: Q01DX009 (ip), vehicle: saline): 97 % of control
- T/C [4]: 99 % of control
- T/C (dose: 400.0 mg/kg/injection, schedule: Q04DX003 (ip), vehicle: saline): 93 % of control

Compound: [Br][Hg][CH2]COC[CH2][Hg][Br]
- T/C (dose: 6.25 mg/kg/injection, schedule: Q01DX009 (ip), vehicle: Klucel (hydroxypropylcellulose) (HPC)): 103 % of control
- T/C (dose: 12.5 mg/kg/injection, schedule: Q01DX009 (ip), vehicle: Klucel (hydroxypropylcellulose) (HPC)): 93 % of control
- T/C (dose: 25.0 mg/kg/injection, schedule: Q01DX009 (ip), vehicle: Klucel (hydroxypropylcellulose) (HPC)): 112 % of control

Compound: COc1ccc(/C=C2/N=C(C)OC2=O)cc1
- T/C (dose: 100.0 mg/kg/injection, schedule: Q01DX001 (ip), vehicle: Klucel (hydroxypropylcellulose) (HPC)): 92 % of control
- T/C (dose: 200.0 mg/kg/injection, schedule: Q01DX001 (ip), vehicle: Klucel (hydroxypropylcellulose) (HPC)): 98 % of control
- T/C (dose: 400.0 mg/kg/injection, schedule: Q01DX001 (ip), vehicle: Klucel (hydroxypropylcellulose) (HPC)): 102 % of control

Compound: O=C(O)CCOC(C[N+](=O)[O-])C(Cl)(Cl)Cl (stereo unspecified)
- T/C [5]: 96 % of control
- T/C [6]: 97 % of control
- T/C [7]: 94 % of control

Compound: CC(=O)OC1C(=O)C(C)(C)CN(C(C)(C)C)CC1(C)C (stereo unspecified)
- T/C [8]: 102 % of control
- T/C [9]: 91 % of control
- T/C (dose: 400.0 mg/kg/injection, schedule: Q01DX001 (ip), vehicle: saline sonified): 90 % of control

Compound: O=C(SSC(=O)c1ccccc1)c1ccccc1
- T/C (dose: 50.0 mg/kg/injection, schedule: Q01DX001 (ip), vehicle: carboxymethylcellulose (CMC)): 96 % of control
- T/C [10]: 94 % of control
- T/C [11]: 90 % of control
- T/C [12]: 107 % of control

Compound: CN(C)CCCN(C)CCCCN(C)CCCN(C)C
- T/C [13]: 96 % of control

Compound: NC(CSCc1ccc(N(CCCl)CCCl)cc1)C(=O)O (stereo unspecified)
- T/C (dose: 2.5 mg/kg/injection, schedule: Q01DX Z (ip), vehicle: carboxymethylcellulose (CMC)): 124 % of control
- T/C (dose: 4.0 mg/kg/injection, schedule: Q01DX Z (ip), vehicle: other): 112 % of control
- T/C (dose: 7.0 mg/kg/injection, schedule: Q01DX009 (ip), vehicle: saline): 109 % of control
- T/C (dose: 7.0 mg/kg/injection, schedule: Q01DX Z (ip), vehicle: saline): 111 % of control
- T/C (dose: 10.0 mg/kg/injection, schedule: Q01DX001 (ip), vehicle: carboxymethylcellulose (CMC)): 87 % of control
- T/C (dose: 10.0 mg/kg/injection, schedule: Q01DX Z (ip), vehicle: carboxymethylcellulose (CMC)): 157 % of control
- T/C (dose: 11.0 mg/kg/injection, schedule: Q01DX009 (ip), vehicle: saline): 103 % of control
- T/C (dose: 11.0 mg/kg/injection, schedule: Q01DX Z (ip), vehicle: saline): 118 % of control
- T/C (dose: 16.0 mg/kg/injection, schedule: Q01DX009 (ip), vehicle: saline): 111 % of control
- T/C (dose: 16.0 mg/kg/injection, schedule: Q01DX Z (ip), vehicle: saline): 114 % of control
- T/C (dose: 20.0 mg/kg/injection, schedule: Q01DX Z (ip), vehicle: carboxymethylcellulose (CMC)): 152 % of control and 168 % of control
- T/C (dose: 24.0 mg/kg/injection, schedule: Q01DX009 (ip), vehicle: saline): 103 % of control
- T/C (dose: 24.0 mg/kg/injection, schedule: Q01DX Z (ip), vehicle: saline): 124 % of control
- T/C (dose: 30.0 mg/kg/injection, schedule: Q01DX Z (ip), vehicle: other): 123 % of control
- T/C (dose: 32.0 mg/kg/injection, schedule: Q01DX009 (ip), vehicle: saline): 113 % of control
- T/C (dose: 40.0 mg/kg/injection, schedule: Q01DX001 (ip), vehicle: carboxymethylcellulose (CMC)): 95 % of control
- T/C (dose: 40.0 mg/kg/injection, schedule: Q01DX Z (ip), vehicle: carboxymethylcellulose (CMC)): 100 % of control
- T/C (dose: 80.0 mg/kg/injection, schedule: Q01DX001 (ip), vehicle: carboxymethylcellulose (CMC)): 91 % of control

Compound: CCn1c2ccccc2c2nnc(NCCCO)nc21
- T/C [14]: 96 % of control
- T/C (dose: 100.0 mg/kg/injection, schedule: Q04DX002 (ip), vehicle: saline): 101 % of control
- T/C [15]: 100 % of control
- T/C (dose: 200.0 mg/kg/injection, schedule: Q04DX002 (ip), vehicle: saline): 97 % of control
- T/C [16]: 94 % of control
- T/C (dose: 400.0 mg/kg/injection, schedule: Q04DX002 (ip), vehicle: saline): 101 % of control

Compound: O=C1OC(=O)C2CC3OC3CC12 (stereo unspecified)
- T/C (dose: 50.0 mg/kg/injection, schedule: Q01DX001 (ip), vehicle: saline sonified): 106 % of control
- T/C [8]: 96 % of control
- T/C [1]: 91 % of control
- T/C [9]: 93 % of control
- T/C [2]: 94 % of control
- T/C (dose: 400.0 mg/kg/injection, schedule: Q04DX003 (ip), vehicle: saline with Tween-80): 108 % of control

Compound: Cc1ccc(S(=O)(=O)N/N=c2\cc(C)c3ccccc3n2C)cc1
- T/C (dose: 100.0 mg/kg/injection, schedule: Q04DX003 (ip), vehicle: gum acacia): 95 % of control
- T/C (dose: 200.0 mg/kg/injection, schedule: Q04DX003 (ip), vehicle: gum acacia): 94 % of control
- T/C (dose: 400.0 mg/kg/injection, schedule: Q04DX003 (ip), vehicle: gum acacia): 93 % of control

Compound: CSc1sc2ccccc2[n+]1C
- T/C (dose: 25.0 mg/kg/injection, schedule: Q01DX009 (ip), vehicle: saline): 102 % of control
- T/C (dose: 50.0 mg/kg/injection, schedule: Q01DX009 (ip), vehicle: saline): 96 % of control and 108 % of control
- T/C [3]: 97 % of control
- T/C [4]: 113 % of control

Compound: CCCCCCCC[As](=O)(O)O
- T/C (dose: 1.5 mg/kg/injection, schedule: Q01DX001 (ip), vehicle: carboxymethylcellulose (CMC)): 104 % of control
- T/C (dose: 3.0 mg/kg/injection, schedule: Q01DX001 (ip), vehicle: carboxymethylcellulose (CMC)): 98 % of control
- T/C (dose: 6.0 mg/kg/injection, schedule: Q01DX001 (ip), vehicle: carboxymethylcellulose (CMC)): 102 % of control

Compound: CC(=O)CCc1c(C)nc(Nc2nc3cc(C)c(C)cc3[nH]2)nc1C
- T/C (dose: 100.0 mg/kg/injection, schedule: Q04DX003 (ip), vehicle: Klucel (hydroxypropylcellulose) (HPC)): 93 % of control
- T/C (dose: 200.0 mg/kg/injection, schedule: Q04DX003 (ip), vehicle: Klucel (hydroxypropylcellulose) (HPC)): 96 % of control
- T/C (dose: 400.0 mg/kg/injection, schedule: Q04DX003 (ip), vehicle: Klucel (hydroxypropylcellulose) (HPC)): 93 % of control

Compound: COc1ccc(/C=C2\N=C(c3ccc([N+](=O)[O-])cc3)OC2=O)cc1
- T/C [5]: 93 % of control
- T/C [6]: 91 % of control
- T/C [7]: 95 % of control

Compound: CCOC(=O)CC(O)(c1ccc(OC)cc1)c1ccc(OC)cc1
- T/C [10]: 92 % of control
- T/C [11]: 97 % of control
- T/C [12]: 95 % of control

Compound: COC1CCC(/C(C#N)=C/C2CCC(NC(C)=O)CC2)CC1 (stereo unspecified)
- T/C [14]: 101 % of control
- T/C [15]: 105 % of control
- T/C [16]: 94 % of control

Compound: COc1cc(OC)c2c(=O)c(O)c(-c3ccc(OC)c(OC)c3)oc2c1
- T/C (dose: 50.0 mg/kg/injection, schedule: Q01DX001 (ip), vehicle: saline): 91 % of control
- T/C [13]: 98 % of control
- T/C (dose: 200.0 mg/kg/injection, schedule: Q01DX001 (ip), vehicle: saline): 98 % of control
- T/C (dose: 400.0 mg/kg/injection, schedule: Q01DX001 (ip), vehicle: saline): 96 % of control

From PubChem BioAssay AID248 (DTP/NCI, 2004)
